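Values below derive from 48-hour exposures of cells grown in 96-well plates, with endpoints linearly interpolated between the two concentrations bracketing the appropriate inhibition level. Definition used: TGI = concentration required for complete inhibition of growth.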
What was measured:
Assay in all cases: growth of human tumour cells (NCI), 48 h
HCT-15 colon = test system: HCT-15 colon
OVCAR-5 ovarian = test system: OVCAR-5 ovarian
MDA-MB-435 = test system: MDA-MB-435
SK-MEL-5 melanoma = test system: SK-MEL-5 melanoma
TK-10 renal = test system: TK-10 renal
NCI-H522 lung = test system: NCI-H522 lung
EKVX NSCLC = test system: EKVX NSCLC
PC-3 prostate = test system: PC-3 prostate
SF-268 CNS = test system: SF-268 CNS
K-562 leukemia = test system: K-562 leukemia
SF-295 CNS = test system: SF-295 CNS
SNB-75 CNS = test system: SNB-75 CNS
NCI-H460 lung = test system: NCI-H460 lung
A498 renal = test system: A498 renal
SF-539 CNS = test system: SF-539 CNS
M14 melanoma = test system: M14 melanoma
DU-145 prostate = test system: DU-145 prostate
UO-31 renal = test system: UO-31 renal
SK-OV-3 ovarian = test system: SK-OV-3 ovarian
786-0 renal = test system: 786-0 renal
MOLT-4 leukemia = test system: MOLT-4 leukemia
HT29 colon = test system: HT29 colon
SW-620 colon = test system: SW-620 colon
SK-MEL-28 melanoma = test system: SK-MEL-28 melanoma
RXF 393 renal = test system: RXF 393 renal
SNB-19 CNS = test system: SNB-19 CNS
OVCAR-4 ovarian = test system: OVCAR-4 ovarian
HCC-2998 colon = test system: HCC-2998 colon
MCF7 breast = test system: MCF7 breast
BT-549 breast = test system: BT-549 breast
NCI-H226 lung = test system: NCI-H226 lung
CCRF-CEM leukemia = test system: CCRF-CEM leukemia
LOX IMVI melanoma = test system: LOX IMVI melanoma
SR leukemia = test system: SR leukemia
CAKI-1 renal = test system: CAKI-1 renal
NCI/ADR-RES ovarian = test system: NCI/ADR-RES ovarian
T-47D breast = test system: T-47D breast
ACHN renal = test system: ACHN renal
HCT-116 colon = test system: HCT-116 colon
NCI-H23 lung = test system: NCI-H23 lung
UACC-257 melanoma = test system: UACC-257 melanoma
MDA-MB-231 breast = test system: MDA-MB-231 breast
U251 CNS = test system: U251 CNS
UACC-62 melanoma = test system: UACC-62 melanoma
HOP-62 NSCLC = test system: HOP-62 NSCLC
MDA-N = test system: MDA-N
RPMI-8226 leukemia = test system: RPMI-8226 leukemia
IGROV1 ovarian = test system: IGROV1 ovarian
OVCAR-3 ovarian = test system: OVCAR-3 ovarian
OVCAR-8 ovarian = test system: OVCAR-8 ovarian
COLO 205 colon = test system: COLO 205 colon
A549 NSCLC = test system: A549 NSCLC
KM12 colon = test system: KM12 colon
SN12C renal = test system: SN12C renal
SK-MEL-2 melanoma = test system: SK-MEL-2 melanoma
HS 578T breast = test system: HS 578T breast
HL-60(TB) leukemia = test system: HL-60(TB) leukemia
MALME-3M melanoma = test system: MALME-3M melanoma
HOP-92 NSCLC = test system: HOP-92 NSCLC

Measured: TGI

CNc1ncccc1Nc1cc(=O)n2c3cccnc3n(C)c2c1
> 100 µM: HCT-15 colon | OVCAR-5 ovarian | MDA-MB-435 | SK-MEL-5 melanoma | TK-10 renal | NCI-H522 lung | EKVX NSCLC | PC-3 prostate | SF-268 CNS | K-562 leukemia | SF-295 CNS | NCI-H460 lung | A498 renal | SF-539 CNS | M14 melanoma | DU-145 prostate | UO-31 renal | SK-OV-3 ovarian | 786-0 renal | MOLT-4 leukemia | HT29 colon | SW-620 colon | SK-MEL-28 melanoma | SNB-19 CNS | OVCAR-4 ovarian | HCC-2998 colon | MCF7 breast | BT-549 breast | NCI-H226 lung | CCRF-CEM leukemia | LOX IMVI melanoma | SR leukemia | CAKI-1 renal | NCI/ADR-RES ovarian | T-47D breast | ACHN renal | HCT-116 colon | NCI-H23 lung | UACC-257 melanoma | MDA-MB-231 breast | U251 CNS | UACC-62 melanoma | HOP-62 NSCLC | MDA-N | RPMI-8226 leukemia | IGROV1 ovarian | OVCAR-3 ovarian | OVCAR-8 ovarian | COLO 205 colon | A549 NSCLC | KM12 colon
80.8 µM: RXF 393 renal
78.1 µM: SNB-75 CNS

CC(=O)OCC1OC(N2C(c3ccccc3)=CC(c3cccs3)C(C#N)=C2S)C(OC(C)=O)C(OC(C)=O)C1OC(C)=O (stereo unspecified)
42.9 µM: A498 renal
> 100 µM: HCT-15 colon | OVCAR-5 ovarian | TK-10 renal | PC-3 prostate | SF-268 CNS | SF-295 CNS | SNB-75 CNS | NCI-H460 lung | SF-539 CNS | M14 melanoma | DU-145 prostate | UO-31 renal | SK-OV-3 ovarian | 786-0 renal | MOLT-4 leukemia | RXF 393 renal | SNB-19 CNS | HCC-2998 colon | MCF7 breast | SN12C renal | CCRF-CEM leukemia | LOX IMVI melanoma | CAKI-1 renal | NCI/ADR-RES ovarian | T-47D breast | ACHN renal | HCT-116 colon | NCI-H23 lung | UACC-257 melanoma | MDA-MB-231 breast | SK-MEL-2 melanoma | U251 CNS | MDA-N | IGROV1 ovarian | OVCAR-3 ovarian | COLO 205 colon | A549 NSCLC | HS 578T breast | KM12 colon

Cc1c(N2C(=O)C(Cl)C2/C=C/c2ccccc2)c(=O)n(-c2ccccc2)n1C (stereo unspecified)
62.3 µM: SF-539 CNS
25 µM: MALME-3M melanoma
42.8 µM: IGROV1 ovarian
87.5 µM: MCF7 breast
45.6 µM: ACHN renal
29.5 µM: KM12 colon
30 µM: SK-MEL-5 melanoma
92.4 µM: UO-31 renal
72.8 µM: MDA-MB-231 breast
86.9 µM: A549 NSCLC
28 µM: COLO 205 colon
21.1 µM: U251 CNS
84.6 µM: OVCAR-4 ovarian
28.1 µM: MDA-MB-435
51.1 µM: K-562 leukemia
76.6 µM: SK-OV-3 ovarian
45.3 µM: HL-60(TB) leukemia
61.6 µM: NCI-H226 lung
40.6 µM: SK-MEL-2 melanoma
34.5 µM: NCI-H522 lung | LOX IMVI melanoma
56.3 µM: HT29 colon
79.3 µM: RXF 393 renal
47 µM: SN12C renal
43.9 µM: SR leukemia
50 µM: MOLT-4 leukemia
34.7 µM: RPMI-8226 leukemia
32.8 µM: NCI-H23 lung
34.4 µM: EKVX NSCLC
31.2 µM: UACC-62 melanoma
34.8 µM: HCT-116 colon
82.1 µM: SW-620 colon
67.1 µM: 786-0 renal
33 µM: UACC-257 melanoma
40 µM: MDA-N
50.2 µM: HOP-92 NSCLC
56.4 µM: OVCAR-8 ovarian
60.9 µM: HOP-62 NSCLC
37.4 µM: TK-10 renal
36 µM: M14 melanoma
48.1 µM: SF-295 CNS | CCRF-CEM leukemia
> 100 µM: OVCAR-5 ovarian | PC-3 prostate | SF-268 CNS | NCI-H460 lung | DU-145 prostate | BT-549 breast | CAKI-1 renal | NCI/ADR-RES ovarian | T-47D breast | OVCAR-3 ovarian
87.3 µM: SNB-75 CNS
